Assay results published in patent US6958318B2, “Recombinant bacterial cells for delivery of PNP to tumor cells” (The UAB Research Foundation, priority 1993, dated 2005).
Where “and” joins values, the source holds several entries; their conditions need not be identical. Equal entries are not always repeated. Where two headings read alike, the source gives them in different places.

Legend:
E. coli PNP [1] = molecular target: T1, E. coli PNP (Escherichia coli, UniProt P0ABP8); format: biochemical
[2] = system: T-84 colon carcinoma cells transfected with E. coli PNP; experiment: Toxicity of MeP-dR in T-84 cells transfected with E. coli PNP; format: cell-based, human
Method: Cationic liposome mediated gene transfer was used to transfect T-84 colon carcinoma cells. Briefly, 6 μg of plasmid containing PNP or LacZ was added to 10 μg of a 1:1 molar mixture of DOTMA/DOPE (LipofectinJ (GIBCO/BRL, Gaithersburg, Md.)) in a final volume of 200 μl DMEM/FI2 serum free medium. After a 10 minute incubation at room temperature, the DNA-lipid mixture was added to 500 μl serum free medium and was used to cover the cells within a tray. Four hours later, transfection medium was removed from each well and 2 ml DMEM/FI2 with 10% fetal bovine serum was added.
Forty-eight hours following transfection, fresh medium was added and MeP-dR (1 mg/ml in PBS) was added directly to the cells to achieve the desired final concentrations. Cell viability was measured 5 days following treatment as described for the MeP-dR toxicity study.
After 5 days the cells were removed from each well and the number of dye excluding cells were determined with the aid of a hemacytometer. 30-50% toxicity due to the DOTMA-DOPE transfection protocol is acceptable for cationic liposome mediated gene transfer to T-84 in vitro when performed under optimal conditions.
In an additional experiment, approximately 2×10^5 cells per well were transfected as above using 6 μg of plasmid containing E. coli PNP cDNA. Two days after transfection, varying concentrations of MeP-dR (0, 2, 4, 20, 40 and 160 μM) were added to the wells, and after 5 days the dye excluding cells were counted with the aid of a hemacytometer.
An experiment was also performed in triplicate in which 2×10^5 cells per well were transfected with LacZ or PNP using the protocol described for transfection. Two days after transfection, 16 μM MeP-dR was added to one set of the cultures transfected with PNP and one set of the cultures transfected with LacZ.

E. coli PNP [3] = molecular target: T1, E. coli PNP; format: cell-based; details: 160 μM, 5 day period, E. coli PNP transfected cells
[4] = Systemically administered dose response (toxicity) in mice; format: in vivo
Method: The formula of Freireich et al., Cancer Chemother. Rep., 50:219-244, (1966) can be used to determine the maximum tolerated dose of substrate for a human subject. […] This amount or slightly less should result in maximal effectiveness of tumor cell killing in humans without killing the subject. This standard of effectiveness is accepted in the field of cancer therapy. However, more preferred is a range of from about 10% to 1% of the maximum tolerated dosage (for example, 7.5 mg/m^2-0.75 mg/m^2). Furthermore, it is understood that modes of administration that permit the substrate to remain localized at or near the site of the tumor will be effective at lower doses than systemically administered substrates.

D54-PNP tumors = experiment: E. coli PNP-transduced D54 glioma tumors in nude mice; format: in vivo
Method: Female athymic nude mice (nu/nu) were implanted sc with 2×10^7 cells of either D54 parental tumor cells (D54-wt) or D54 tumor cells that had been transduced with the E. coli PNP (D54-PNP). After the tumors had grown to approximately 150 mg, they were treated ip with either vehicle or 67 mg/kg of MeP-dR (IP) once a day for 3 days (days 6, 7 and 8 after implantation). The tumor sizes were measured twice a week after treatment.
A confirmation experiment was set up exactly as described above, except that animals were treated with two doses of MeP-dR (45 and 67 mg/kg) (FIGS. 10 and 11). The results of this experiment were similar (Table V). There were 8 of 10 complete regressions in mice bearing the D54-PNP tumors that were treated with 67 mg/kg of MeP-dR. In 4 mice the tumors subsequently returned and grew. There were still 4 of 10 tumor-free survivors 60 days after the treatment had stopped. […] There were 2 of 10 complete regressions and 3 partial responses. […] The delay in the time required to double twice due to treatment with MeP-dR was 5 to 6 days in the non-transduced tumors and greater than 24 days in transduced tumors. In this experiment, the growth rate of the D54-PNP tumors was considerably slower than it was in the first experiment. There was no change in the growth rate of the D54-wt tumors. The reason for the slow growth rate of the D54-PNP tumors in this experiment is not known. […] (In other words, if a tumor was too small to measure, it was not included in the average size). This means that the overall tumor regressions in the D54 PNP group are actually much more pronounced than they appear in FIGS. 8-11.

E. coli PNP [5] = molecular target: T1, E. coli PNP; format: biochemical; remark: listed apart in the source
[6] = Stability under tissue culture conditions (HPLC of supernatants); details: HPLC analysis of supernatants

T1 sequence (P0ABP8 2-239): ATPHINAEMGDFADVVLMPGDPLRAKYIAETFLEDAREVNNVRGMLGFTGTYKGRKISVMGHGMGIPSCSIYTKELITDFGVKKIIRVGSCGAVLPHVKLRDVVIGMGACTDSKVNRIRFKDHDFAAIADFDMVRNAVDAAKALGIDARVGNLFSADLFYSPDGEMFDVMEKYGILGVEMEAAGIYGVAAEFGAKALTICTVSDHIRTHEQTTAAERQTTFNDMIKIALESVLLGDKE

Cc1ncnc2c1ncn2[C@H]1C[C@H](O)[C@@H](CO)O1 [MeP-dR, 9-(β-D-2-deoxyerythropentofuranosyl)-6-methylpurine]
Percent of substrate cleaved by E. coli PNP, 100 μM (E. coli PNP [1]): 91(86)45(21) Percent and 93(87)29(24) Percent | Percent of substrate cleaved by E. coli PNP, 1 mM (E. coli PNP [1]): 91(86)45(21) Percent and 93(87)29(24) Percent | Substrate quality for bacterial (E. coli) PNP (E. coli PNP [1]): good substrates | Inhibition of cell growth ([2]; 4 μM, 5 days, 6 μg PNP plasmid): greater than 80% | Killing after PNP transfection ([2]; 16 μM): Substantial killing | Killing of cells transfected with E. coli PNP ([2]; 160 μM, 5 days): killed virtually all of the cells | MeP-dR converted to MeP in culture medium (E. coli PNP [3]): More than 75% | Toxicity in mice ([4]; 25 mg per kg per day for 9 days): some toxicity but no lethality | Human dosage (maximum tolerated dose) by formula of Freireich ([4]; 25 mg/kg×3): 75 mg/m^2 | Loss of weight in treated animals (D54-PNP tumors; 67 mg/kg, regardless of tumor implanted): little or no loss of weight | Effect on E. coli PNP expressing D54 tumors, in words (D54-PNP tumors; 45 or 67 mg/kg): caused regression | Days Delay (T-C) (D54-PNP tumors; Table IV, 67 mg/kg): >39 days | Doubling time (D54-PNP tumors; Table IV, 67 mg/kg): >56 | Nonspecific Deaths/Total (D54-PNP tumors; Table IV, 67 mg/kg): 0/6 | Regressions Partial (D54-PNP tumors; Table IV, 67 mg/kg): 0/6 | Regressions Complete (D54-PNP tumors; Table IV, 67 mg/kg IP once a day for three days, 67 mg/kg): 6 of 6 and 6/6 | Tumor-free Survival (D54-PNP tumors; Table IV, 67 mg/kg, followed 65 days, 67 mg/kg): Four and 4/6 | Days Delay (T-C) (D54-PNP tumors; Table V, 45 mg/kg): >24 days | Doubling time (D54-PNP tumors; Table V, 45 mg/kg): >54 | Nonspecific Deaths/Total (D54-PNP tumors; Table V, 45 mg/kg): 0/10 | Regressions Partial (D54-PNP tumors; Table V, 45 mg/kg): 3 and 3/10 | Tumor-free Survival (D54-PNP tumors; Table V, 45 mg/kg): no tumor-free survivors and 0/10 | Regressions Complete (D54-PNP tumors; Table V, 45 mg/kg IP once a day for three days, 45 mg/kg): 2 of 10 and 2/10 | Days Delay (T-C) (D54-PNP tumors; Table V, 67 mg/kg): >25 days | Doubling time (D54-PNP tumors; Table V, 67 mg/kg): >55 | Nonspecific Deaths/Total (D54-PNP tumors; Table V, 67 mg/kg): 1/10 | Regressions Partial (D54-PNP tumors; Table V, 67 mg/kg): 1/10 | Regressions Complete (D54-PNP tumors; Table V, 67 mg/kg IP once a day for three days, 67 mg/kg): 8 of 10 and 8/10 | Tumor-free Survival (D54-PNP tumors; Table V, 67 mg/kg, 60 days after treatment stopped, 67 mg/kg): 4 of 10 and 4/10 | Activity against D54 glioma tumors expressing the E. coli PNP gene (D54-PNP tumors; previous studies): good activity | Delay in the time required to double twice (D54-PNP tumors; transduced tumors, 45 and 67 mg/kg): greater than 24 days | Background activity in cell free extracts (E. coli PNP [5]; non-transduced 16/C and B16 cells): 0 | E. coli PNP activity in cell free extracts (E. coli PNP [5]; transduced 16/C cells, n=6): 10.7 nmoles MeP-dR converted/mg cell protein/hr | E. coli PNP activity in cell free extracts (E. coli PNP [5]; transduced B16 cells, n=2): 2.4 nmoles MeP-dR converted/mg cell protein/hour | Stability under tissue culture conditions [6]: stable
